In PubChem BioAssay AID602341 (The Scripps Research Institute Molecular Screening Center, 2012):
Activity calls are given as the source filed them. How the calls were made is not given here.

Tests used:
Test in all cases: serine hydrolase selectivity, ABHD6 analysis, late-stage follow-up, selectivity assay for DAGLb inhibitor project, ABPP-SILAC, LC-MS, mouse cells (AID 602341)
[1] = system: Lipe; conditions: serine hydrolases, hits give low values
[2] = system: Dpp7; conditions: serine hydrolases, hits give low values
[3] = system: Acot2; conditions: serine hydrolases, hits give low values
[4] = molecular target: Monoacylglycerol lipase ABHD6 (Mus musculus) (UniProt Q8R2Y0); conditions: serine hydrolases, hits give low values
[5] = molecular target: Diacylglycerol lipase-beta (Mus musculus) (UniProt Q91WC9); conditions: serine hydrolases, Daglb, hits give low values
[6] = system: Bat5; conditions: serine hydrolases, hits give low values
[7] = system: Qrsl1; conditions: serine hydrolases, hits give low values
[8] = system: Iah1; conditions: serine hydrolases, hits give low values
[9] = system: Pnpla6; conditions: serine hydrolases, hits give low values
[10] = system: Tpp2; conditions: serine hydrolases, hits give low values
[11] = molecular target: Platelet-activating factor acetylhydrolase 2, cytoplasmic (Mus musculus) (UniProt Q8VDG7); conditions: serine hydrolases, Pafah2, hits give low values
[12] = system: Ppt2; conditions: serine hydrolases, hits give low values
[13] = system: Pla2g6; conditions: serine hydrolases, hits give low values
[14] = system: Apeh; conditions: serine hydrolases, hits give low values
[15] = molecular target: Acyl-protein thioesterase 1 (Mus musculus) (UniProt P97823); conditions: serine hydrolases, Lypla1, hits give low values
[16] = system: Fam108c; conditions: serine hydrolases, hits give low values
[17] = system: Fasn; conditions: serine hydrolases, hits give low values
[18] = system: Dpp9; conditions: serine hydrolases, hits give low values
[19] = system: Esd; conditions: serine hydrolases, hits give low values
[20] = system: Faah; conditions: serine hydrolases, hits give low values
[21] = system: Htra2; conditions: serine hydrolases, hits give low values
[22] = system: Prepl; conditions: serine hydrolases, hits give low values
[23] = system: Ctsa; conditions: serine hydrolases, hits give low values
[24] = system: Fam108b; conditions: serine hydrolases, hits give low values
[25] = molecular target: Palmitoyl-protein thioesterase ABHD10, mitochondrial (Mus musculus) (UniProt Q6PE15); conditions: serine hydrolases, hits give low values
[26] = system: Lonp1; conditions: serine hydrolases, hits give low values
[27] = system: Serhl; conditions: serine hydrolases, hits give low values
[28] = system: Lypla3; conditions: serine hydrolases, hits give low values
[29] = system: Lyplal1; conditions: serine hydrolases, hits give low values
[30] = system: Ache; conditions: serine hydrolases, hits give low values
[31] = system: Prcp; conditions: serine hydrolases, hits give low values
[32] = system: Abhd12; conditions: serine hydrolases, hits give low values
[33] = molecular target: Prolyl endopeptidase (Mus musculus) (UniProt Q9QUR6); conditions: serine hydrolases, Prep, hits give low values
[34] = system: Fam108a; conditions: serine hydrolases, hits give low values
[35] = system: Pme1; conditions: serine hydrolases, hits give low values
[36] = system: Pnpla8; conditions: serine hydrolases, hits give low values
[37] = system: Pafah1b3; conditions: serine hydrolases, hits give low values
[38] = system: Abhd11; conditions: serine hydrolases, hits give low values
[39] = system: D230012E17Rik; conditions: serine hydrolases, hits give low values
[40] = system: Lactb; conditions: serine hydrolases, hits give low values
[41] = system: Parl; conditions: serine hydrolases, hits give low values
[42] = system: Rbbp9; conditions: serine hydrolases, hits give low values
[43] = system: Lypla2; conditions: serine hydrolases, hits give low values
[44] = system: Pafah1b2; conditions: serine hydrolases, hits give low values
[45] = system: Pnpla7; conditions: serine hydrolases, hits give low values
[46] = system: Kiaa1363; conditions: serine hydrolases, hits give low values
[47] = system: Dpp8; conditions: serine hydrolases, hits give low values

Sequence of Prolyl endopeptidase (Mus musculus) (Q9QUR6 whole entry, looked up): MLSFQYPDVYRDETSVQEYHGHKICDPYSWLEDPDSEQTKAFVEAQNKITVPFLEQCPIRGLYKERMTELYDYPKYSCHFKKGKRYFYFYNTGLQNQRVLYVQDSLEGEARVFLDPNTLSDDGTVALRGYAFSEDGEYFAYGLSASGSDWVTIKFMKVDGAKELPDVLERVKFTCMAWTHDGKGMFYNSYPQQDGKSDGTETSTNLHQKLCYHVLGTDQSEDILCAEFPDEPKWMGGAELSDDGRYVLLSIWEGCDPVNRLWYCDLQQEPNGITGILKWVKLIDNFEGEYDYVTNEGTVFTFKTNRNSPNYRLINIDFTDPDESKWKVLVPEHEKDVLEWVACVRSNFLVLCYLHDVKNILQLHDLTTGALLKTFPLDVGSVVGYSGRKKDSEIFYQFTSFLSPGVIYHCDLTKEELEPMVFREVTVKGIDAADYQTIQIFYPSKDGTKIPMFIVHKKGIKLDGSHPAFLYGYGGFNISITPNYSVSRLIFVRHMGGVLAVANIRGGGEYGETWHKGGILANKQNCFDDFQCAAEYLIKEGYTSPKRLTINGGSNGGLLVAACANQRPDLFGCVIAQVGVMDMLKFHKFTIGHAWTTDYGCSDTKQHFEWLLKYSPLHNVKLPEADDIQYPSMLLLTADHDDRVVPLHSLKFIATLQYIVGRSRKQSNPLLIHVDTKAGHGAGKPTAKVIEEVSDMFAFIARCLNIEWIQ
Sequence of Platelet-activating factor acetylhydrolase 2, cytoplasmic (Mus musculus) (Q8VDG7 whole entry, looked up): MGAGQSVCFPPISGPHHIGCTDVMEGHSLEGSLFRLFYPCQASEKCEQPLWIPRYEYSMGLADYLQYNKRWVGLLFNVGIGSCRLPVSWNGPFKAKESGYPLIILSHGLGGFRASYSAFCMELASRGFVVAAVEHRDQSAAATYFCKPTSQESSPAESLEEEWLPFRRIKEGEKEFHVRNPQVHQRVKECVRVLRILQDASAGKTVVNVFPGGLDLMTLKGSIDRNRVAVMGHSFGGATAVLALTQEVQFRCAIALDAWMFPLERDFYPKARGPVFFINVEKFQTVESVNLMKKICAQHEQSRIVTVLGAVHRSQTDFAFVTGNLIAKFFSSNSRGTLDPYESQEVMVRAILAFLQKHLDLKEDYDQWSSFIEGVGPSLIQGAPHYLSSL
Sequence of Diacylglycerol lipase-beta (Mus musculus) (Q91WC9 whole entry, looked up): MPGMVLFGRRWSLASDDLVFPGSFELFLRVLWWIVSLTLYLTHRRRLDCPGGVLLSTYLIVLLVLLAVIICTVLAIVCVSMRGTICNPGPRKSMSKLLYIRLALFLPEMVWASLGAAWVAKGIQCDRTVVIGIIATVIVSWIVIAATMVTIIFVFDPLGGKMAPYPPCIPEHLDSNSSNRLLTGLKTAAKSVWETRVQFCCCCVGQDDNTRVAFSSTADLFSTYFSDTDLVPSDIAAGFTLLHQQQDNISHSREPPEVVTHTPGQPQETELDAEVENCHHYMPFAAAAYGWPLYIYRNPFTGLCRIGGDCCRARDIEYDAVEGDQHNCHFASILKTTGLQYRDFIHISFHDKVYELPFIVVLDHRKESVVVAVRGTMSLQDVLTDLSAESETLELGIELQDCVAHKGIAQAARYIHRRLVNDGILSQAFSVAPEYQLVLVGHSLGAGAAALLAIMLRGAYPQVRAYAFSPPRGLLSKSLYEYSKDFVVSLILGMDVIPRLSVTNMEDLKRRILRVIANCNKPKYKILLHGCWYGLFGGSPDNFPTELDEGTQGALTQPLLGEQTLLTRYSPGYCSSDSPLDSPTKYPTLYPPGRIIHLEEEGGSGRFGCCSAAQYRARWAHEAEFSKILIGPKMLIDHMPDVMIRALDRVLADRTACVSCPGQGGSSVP
Sequence of Palmitoyl-protein thioesterase ABHD10, mitochondrial (Mus musculus) (Q6PE15 whole entry, looked up): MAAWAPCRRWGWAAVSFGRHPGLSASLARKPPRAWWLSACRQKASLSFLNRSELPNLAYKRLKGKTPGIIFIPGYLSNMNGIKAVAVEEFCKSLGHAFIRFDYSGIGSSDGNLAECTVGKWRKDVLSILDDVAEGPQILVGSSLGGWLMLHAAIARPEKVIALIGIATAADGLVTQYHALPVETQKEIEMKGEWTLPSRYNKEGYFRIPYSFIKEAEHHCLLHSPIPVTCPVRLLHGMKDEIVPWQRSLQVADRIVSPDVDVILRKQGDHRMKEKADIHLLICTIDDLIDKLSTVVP
Sequence of Acyl-protein thioesterase 1 (Mus musculus) (P97823 whole entry, looked up): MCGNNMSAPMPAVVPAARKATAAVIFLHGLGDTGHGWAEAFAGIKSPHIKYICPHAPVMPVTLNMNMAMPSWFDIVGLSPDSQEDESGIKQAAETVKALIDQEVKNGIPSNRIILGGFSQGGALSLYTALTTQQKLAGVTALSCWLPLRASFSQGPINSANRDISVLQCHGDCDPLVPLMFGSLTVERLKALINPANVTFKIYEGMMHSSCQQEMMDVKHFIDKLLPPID
Sequence of Monoacylglycerol lipase ABHD6 (Mus musculus) (Q8R2Y0 whole entry, looked up): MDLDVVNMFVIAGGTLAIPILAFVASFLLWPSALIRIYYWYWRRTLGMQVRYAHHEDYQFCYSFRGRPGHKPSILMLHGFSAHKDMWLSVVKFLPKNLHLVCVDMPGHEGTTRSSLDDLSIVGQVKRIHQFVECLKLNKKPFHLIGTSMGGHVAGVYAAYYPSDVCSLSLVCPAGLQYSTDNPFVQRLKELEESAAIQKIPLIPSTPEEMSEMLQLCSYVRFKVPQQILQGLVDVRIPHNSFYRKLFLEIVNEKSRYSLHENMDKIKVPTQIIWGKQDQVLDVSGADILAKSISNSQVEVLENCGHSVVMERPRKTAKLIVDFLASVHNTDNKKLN

How did the SILAC ratio (inhibitor/DMSO) [1] turn out when `COc1ccc(-c2ccc(-c3cn(C(=O)N4CCCCC4c4ccccc4)nn3)cc2)cc1` (configuration not stated) was run?
The SILAC ratio (inhibitor/DMSO) was 1.21 (inactive).

What about the SILAC ratio (inhibitor/DMSO) [2] of the same compound?
The SILAC ratio (inhibitor/DMSO) was 1.29 (inactive).

What about the SILAC ratio (inhibitor/DMSO) [3] of the same compound?
The SILAC ratio (inhibitor/DMSO) was 1.47 (inactive).

And the SILAC ratio (inhibitor/DMSO) [4]?
Its SILAC ratio (inhibitor/DMSO) is 0.05.

What about the SILAC ratio (inhibitor/DMSO) [5] of the same compound?
The SILAC ratio (inhibitor/DMSO) was 1.05 (inactive).

And the SILAC ratio (inhibitor/DMSO) [6]?
Its SILAC ratio (inhibitor/DMSO) is 1.27 (inactive).

And the SILAC ratio (inhibitor/DMSO) [7]?
The SILAC ratio (inhibitor/DMSO) was 1.47 (inactive).

What about the SILAC ratio (inhibitor/DMSO) [8] of the same compound?
Its SILAC ratio (inhibitor/DMSO) is 1.15 (inactive).

What about the SILAC ratio (inhibitor/DMSO) [9] of the same compound?
The SILAC ratio (inhibitor/DMSO) was 1.4 (inactive).

What about the SILAC ratio (inhibitor/DMSO) [10] of the same compound?
Its SILAC ratio (inhibitor/DMSO) is 1.43 (inactive).

What about the SILAC ratio (inhibitor/DMSO) [11] of the same compound?
Its SILAC ratio (inhibitor/DMSO) is 1.1 (inactive).

What about the SILAC ratio (inhibitor/DMSO) [12] of the same compound?
The SILAC ratio (inhibitor/DMSO) was 1.17 (inactive).

What about the SILAC ratio (inhibitor/DMSO) [13] of the same compound?
The SILAC ratio (inhibitor/DMSO) was 1.47 (inactive).

What about the SILAC ratio (inhibitor/DMSO) [14] of the same compound?
Its SILAC ratio (inhibitor/DMSO) is 1.13 (inactive).

And the SILAC ratio (inhibitor/DMSO) [15]?
The SILAC ratio (inhibitor/DMSO) was 1.05 (inactive).

What about the SILAC ratio (inhibitor/DMSO) [16] of the same compound?
The SILAC ratio (inhibitor/DMSO) was 1.13 (inactive).

And the SILAC ratio (inhibitor/DMSO) [17]?
The SILAC ratio (inhibitor/DMSO) was 1.19 (inactive).

And the SILAC ratio (inhibitor/DMSO) [18]?
Its SILAC ratio (inhibitor/DMSO) is 1.06 (inactive).

What about the SILAC ratio (inhibitor/DMSO) [19] of the same compound?
The SILAC ratio (inhibitor/DMSO) was 1.34 (inactive).

What about the SILAC ratio (inhibitor/DMSO) [20] of the same compound?
Its SILAC ratio (inhibitor/DMSO) is 0.95 (inactive).

What about the SILAC ratio (inhibitor/DMSO) [21] of the same compound?
Its SILAC ratio (inhibitor/DMSO) is 1.29 (inactive).

What about the SILAC ratio (inhibitor/DMSO) [22] of the same compound?
The SILAC ratio (inhibitor/DMSO) was 1 (inactive).

What about the SILAC ratio (inhibitor/DMSO) [23] of the same compound?
Its SILAC ratio (inhibitor/DMSO) is 1.46 (inactive).

And the SILAC ratio (inhibitor/DMSO) [24]?
The SILAC ratio (inhibitor/DMSO) was 1.15 (inactive).

And the SILAC ratio (inhibitor/DMSO) [25]?
Its SILAC ratio (inhibitor/DMSO) is 1.17 (inactive).

What about the SILAC ratio (inhibitor/DMSO) [26] of the same compound?
The SILAC ratio (inhibitor/DMSO) was 1.73 (inactive).

What about the SILAC ratio (inhibitor/DMSO) [27] of the same compound?
The SILAC ratio (inhibitor/DMSO) was 1.2 (inactive).

What about the SILAC ratio (inhibitor/DMSO) [28] of the same compound?
Its SILAC ratio (inhibitor/DMSO) is 1.1 (inactive).

And the SILAC ratio (inhibitor/DMSO) [29]?
Its SILAC ratio (inhibitor/DMSO) is 1.61 (inactive).

And the SILAC ratio (inhibitor/DMSO) [30]?
The SILAC ratio (inhibitor/DMSO) was 1.23 (inactive).

What about the SILAC ratio (inhibitor/DMSO) [31] of the same compound?
The SILAC ratio (inhibitor/DMSO) was 0.86 (inactive).

And the SILAC ratio (inhibitor/DMSO) [32]?
Its SILAC ratio (inhibitor/DMSO) is 1.3 (inactive).

What about the SILAC ratio (inhibitor/DMSO) [33] of the same compound?
The SILAC ratio (inhibitor/DMSO) was 1.07 (inactive).

And the SILAC ratio (inhibitor/DMSO) [34]?
Its SILAC ratio (inhibitor/DMSO) is 1.33 (inactive).

What about the SILAC ratio (inhibitor/DMSO) [35] of the same compound?
The SILAC ratio (inhibitor/DMSO) was 1.29 (inactive).

And the SILAC ratio (inhibitor/DMSO) [36]?
The SILAC ratio (inhibitor/DMSO) was 1.33 (inactive).

And the SILAC ratio (inhibitor/DMSO) [37]?
Its SILAC ratio (inhibitor/DMSO) is 1.15 (inactive).

What about the SILAC ratio (inhibitor/DMSO) [38] of the same compound?
The SILAC ratio (inhibitor/DMSO) was 1.5 (inactive).

And the SILAC ratio (inhibitor/DMSO) [39]?
Its SILAC ratio (inhibitor/DMSO) is 1.13 (inactive).

And the SILAC ratio (inhibitor/DMSO) [40]?
The SILAC ratio (inhibitor/DMSO) was 1.05 (inactive).

What about the SILAC ratio (inhibitor/DMSO) [41] of the same compound?
The SILAC ratio (inhibitor/DMSO) was 1.4 (inactive).

What about the SILAC ratio (inhibitor/DMSO) [42] of the same compound?
Its SILAC ratio (inhibitor/DMSO) is 1.4 (inactive).

And the SILAC ratio (inhibitor/DMSO) [43]?
Its SILAC ratio (inhibitor/DMSO) is 1.13 (inactive).

What about the SILAC ratio (inhibitor/DMSO) [44] of the same compound?
The SILAC ratio (inhibitor/DMSO) was 1.19 (inactive).

What about the SILAC ratio (inhibitor/DMSO) [45] of the same compound?
The SILAC ratio (inhibitor/DMSO) was 1.65 (inactive).

And the SILAC ratio (inhibitor/DMSO) [46]?
Its SILAC ratio (inhibitor/DMSO) is 1.39 (inactive).

And the SILAC ratio (inhibitor/DMSO) [47]?
Its SILAC ratio (inhibitor/DMSO) is 1.17 (inactive).
